Results on two molecules are retold here after patent US20170105981A1, “METHODS FOR STABILIZING HYPOXIA INDUCIBLE FACTOR-2 ALPHA AS A METHOD FOR TREATING CANCER” (The Ohio State Innovation Foundation, priority 2011, published 2017).

Assay [1] deals with B16F10 murine melanoma cells. The experiment in a line: Murine melanoma tumor model (B16F10 in C57BL/6 mice). Type of assay: in vivo. The method, then:
Mice were injected with 1×10^5 B16F10 murine melanoma cells murine subcutaneously on the left flank. Once tumors become palpable (approximately 5 days), mice were randomly allocated to receive treatment with either: 20% polyethylene glycol (PEG) in 5% […] (vehicle control for the disclosed HIF-2α stabilizer) and PBS (vehicle control for GM-CSF), 20% PEG and GM-CSF (100 ng per mouse in a 50 μL volume), the disclosed HIF-2α stabilizer (17.5 mg/kg in a 100 μL volume) and PBS, or the disclosed HIF-2α stabilizer and GM-CSF (same doses). The PBS and GM-CSF were administered intratumorally, while the 20% PEG and the disclosed HIF-2α stabilizer were administered intraperitoneally. Mice were treated 3 times per week until tumors reached a size of 20 mm in any dimension (approximately 2.5 weeks), at which point mice were euthanized, in accordance with institutional policy. Tumor diameters were measured 3 times per week with calipers, and tumor volumes were calculated as follows: Tumor volume=0.5×[(large diameter)×(small diameter)^2].
6-8-week-old C57BL/6 mice were injected with 1×10^5 B16F10 murine melanoma cells murine subcutaneously on the left flank. Once tumors become palpable (approximately 5 days), mice were randomly allocated to receive treatment with either: 20% PEG-400 in 5% sucrose (vehicle for disclosed HIF-2α stabilizer) and PBS (vehicle for GM-CSF), 20% PEG-400 and GM-CSF (100 ng per mouse in a 50 μL volume), disclosed HIF-2α stabilizer (17.5 mg/kg mouse weight in a 100 μL volume) and PBS, or the disclosed HIF-2α stabilizer and GM-CSF (same concentrations). The disclosed HIF-2α stabilizer (or the vehicle control) was administered intraperitoneally, while GM-CSF (or the vehicle control) was administered intratumorally. Mice were treated […] 3 times per week until tumors reached a size of 20 mm in any dimension (approximately 2.5 weeks), at which point mice were be euthanized, in accordance with institutional policy. Tumor diameters were measured 3 times per week with calipers, and tumor volumes will be calculated as follows: Tumor volume=0.5×[(large diameter)×(small diameter)^2]. For experiments analyzing the effect of neutralizing sVEGFR-1 in combination with disclosed HIF-2α stabilizer treatment, mice were treated intraperitoneally 3×/week with either disclosed HIF-2α stabilizer or vehicle control, and intratumorally with either 4 μg anti-VEGFR-1 neutralizing antibody (R&D Systems) or 4 μg polyclonal goat IgG isotype control (Santa Cruz Biotechnology) in a 50 μL volume. All protocols were approved by the Ohio State University Animal Care and Use Committee, and mice were treated in accordance with institutional guidelines for animal care.
The ANOVA test was used to compare independent measurements between multiple treatment groups. The data was log-transformed to normalize the variance across groups. P-values were adjusted using the Holm's procedure to conserve the type I error at 0.05 due to the multiple comparisons. For tumor growth data, changes in tumor volume over time were assessed via a longitudinal model. Tumor values were log-transformed, and estimated slopes (changes in tumor volume over time) were calculated with 95% confidence intervals. Estimated differences in tumor volume were calculated by a random-effects regression of the longitudinal data. For all analyses, p≦0.05 was considered statistically significant.
6-8-week-old C57BL/6 mice or SCID mice were injected with 1×10^5 B16F10 murine melanoma cells or 1×10^6 A375 human melanoma cells, respectively, subcutaneously on the left flank. […]

In assay [2] the test system is sVEGFR-1. Nature of the assay: sVEGFR-1 production by human peripheral blood monocytes (ELISA, real-time PCR). It counts as cell-based. Particulars: monocytes stimulated with GM-CSF alone; FIG. 11D. On the procedure:
(§1) Human peripheral blood mononuclear cells (PBMCs) were isolated from fresh peripheral blood leukocyte source packs (American Red Cross, Columbus Ohio) by density gradient centrifugation over Lymphocyte Separation Medium (Cellgro). Monocytes were purified from total PBMCs by layering over FBS. Monocytes were cultured in endotoxin-free RPMI-1640 supplemented with 1% fetal bovine serum (FBS), 0.1% human serum albumin (HSA), and 10 μg/mL of the endotoxin inhibitor polymyxin B. In some experiments, freshly isolated monocytes were differentiated into macrophages by three-day culture in media containing 10% FBS, 1% PSA (penicillin G sodium, streptomycin sulfate, and amphotericin B), and 20 ng/mL M-CSF. Macrophages were serum-starved for 2 hours prior to stimulation. Monocytes or monocyte-derived macrophages were treated for 24 hours with 10 ng/mL GM-CSF, 10 μM disclosed HIF-2α stabilizer, or an equivalent volume of the vehicle controls (PBS or DMSO, respectively). Cell-free culture supematants were harvested and analyzed for VEGF or sVEGFR-1 by ELISA (R&D Systems).
(§2) Human monocytes were left untreated or were stimulated with 100 ng/mL GM-CSF at normoxia or at 0.5% O2. At various time-points, cells were harvested in Trizol reagent (Invitrogen) and RNA was extracted in chloroform and then purified using the RNeasy Minikit (Qiagen). In murine studies, organs harvested at the time of euthanasia were flash-frozen in liquid nitrogen, pulverized in liquid nitrogen, and then dissolved in Trizol. cDNA was generated from 1 μg of RNA using the Superscript First Strand Synthesis System (Invitrogen) and used for real-time PCR using previously described primers and SYBR Green PCR Master Mix (Applied Biosciences), according to the manufacturer's instructions. Data were analyzed according to the comparative threshold method and normalized against the β-actin internal control transcript. Results are semi-quantitative and represent the fold difference in transcript levels in a particular sample as compared with levels in untreated cells from the same donor.

Assay [3] relates to VEGF. The experiment in a line: VEGF production by human peripheral blood monocytes (ELISA, real-time PCR). Type of assay: cell-based. Particulars: FIG. 11C. On the procedure:
as §1
as §2, with “donor. […]” for “donor.”
A general note: In an ELISA, binding on a coated surface is turned into a signal by an enzyme label.

Assay [4] deals with VEGF mRNA. The experiment in a line: Real-time PCR of VEGF mRNA within B16F10 tumors. It counts as in vivo, mice. Particulars: p=0.490, FIG. 13B. On the procedure:
as §2
6-8-week-old C57BL/6 mice were injected with 1×10^5 B16F10 murine melanoma cells murine subcutaneously on the left flank. […] Tumor diameters were measured 3 times per week with calipers, and tumor volumes will be calculated as follows: Tumor volume=0.5×[(large diameter)×(small diameter)^2]. […]
On the technique in general: Real-time PCR tracks product formation cycle by cycle.

The test system of assay [5] is A375 human melanoma cells. Nature of the assay: A375 human melanoma tumors in SCID mice. Type of assay: in vivo. Particulars: at the time of sacrifice; stabilizer 17 mg/kg, docetaxel 1 mg/kg, IP 3 times per week. On the procedure:
6-8-week-old C57BL/6 mice or SCID mice were injected with 1×10^5 B16F10 murine melanoma cells or 1×10^6 A375 human melanoma cells, respectively, subcutaneously on the left flank. […] Tumor diameters were measured 3 times per week with calipers, and tumor volumes will be calculated as follows: Tumor volume=0.5×[(large diameter)×(small diameter)^2].
In the study, immunocompromised SCID mice were inoculated with A375 human melanoma tumors subcutaneously. Starting when the tumors became palpable (7 days after injection), mice were treated with either the cytotoxic chemotherapy docetaxel or with the disclosed HIF-2α stabilizer. The disclosed HIF-2α stabilizer was given at a dose of 17 mg/kg, and the docetaxel was given at 1 mg/kg. Both drugs were given IP 3 times per week. […] At the time of sacrifice, the tumors in the mice that received only the disclosed HIF-2α stabilizer were approximately 78% of the size of the control tumors, the tumors of the mice that received only chemotherapy were approximately 50% of the size of the control tumors, and the tumors of the mice that received both drugs were approximately 16% of the size of the control tumors.

As for “GM-CSF: granulocyte-macrophage colony-stimulating factor”, in assay [1] (B16F10 melanoma, stabilizer 17 mg/kg I.P. in all cases, no control group, FIG. 4), the “tumor volume reduction, GM-CSF given I.T. vs I.P.” value is given as “greater reduction of tumor volume”. Besides, the “tumor growth / tumor volume” value in assay [1] (B16F10 melanoma, stabilizer 17 mg/kg I.P., GM-CSF I.T., vs PBS control, FIG. 3) was “reduction in tumor volume”. The “average tumor volumes vs vehicle controls” value in assay [1] (day 16 of treatment, 3×/week, GM-CSF 100 ng/mouse intratumoral, stabilizer 17.5 mg/kg intraperitoneal, each p<0.001) is “significantly smaller”. In addition, the “monocyte production of sVEGFR-1” value in assay [2] is listed as “induced”. Further, in assay [3] (GM-CSF-stimulated monocytes, VEGF neutralized by sVEGFR-1), the “VEGF protein in supernatants (free VEGF ELISA)” value is given as “undetectable”. Further, the VEGF transcript levels entry in assay [3] (monocytes stimulated with GM-CSF alone) was “increased VEGF production”. Further, in assay [4], the “levels of intratumoral VEGF vs vehicle control-treated mice” value is on record as “failed to increase”.

Consider `CC(=O)O[C@@]12CO[C@@H]1C[C@H](O)[C@@]1(C)C(=O)[C@H](O)C3=C(C)[C@@H](OC(=O)[C@H](O)[C@@H](NC(=O)OC(C)(C)C)c4ccccc4)C[C@@](O)([C@@H](OC(=O)c4ccccc4)[C@H]21)C3(C)C` [docetaxel, reference compound], for which the “tumor size as % of the size of the control tumors” value in assay [5] is recorded as “approximately 50%”.
